Experimental data: EP3383875B1, “3-PYRIMIDINYL PYRROLO [2,3-B] PYRIDINE AS ANTICANCER AGENTS AND THE PROCESS FOR THE PREPARATION THEREOF” (Council Of Scientific & Industrial Research, priority 2015, dated 2017)
Where two headings read alike, the source gives them in different places.

Assays:
[1] = system: MDA-MB435; experiment: MTT assay on cancer cell line MDA-MB435; assay type: cell-based, Human; conditions: Homo sapiens, MDA-MB-435; MDA-MB435; at 10µM; Table 9 (for reference); read-out: In vitro cell inhibition, % of inhibition, MDA-MB435
Experimental: (§1) Cell culture, growth conditions and treatments. […] Different molecules were dissolved in DMSO and were delivered to cell cultures in complete medium.

[2] = system: MCF-7; experiment: MTT assay on cancer cell line MCF-7; assay type: cell-based, Human; conditions: Homo sapiens
Experimental: as §1

[3] = system: SHSY-5Y; experiment: MTT assay on cancer cell line SHSY-5Y; assay type: cell-based, human; conditions: Homo sapiens, SH-SY5Y
Experimental: as §1

[4] = system: HCT-116; experiment: MTT assay on cancer cell line HCT-116; assay type: cell-based, human; conditions: Homo sapiens, at 10µM, Table 9 (for reference), read-out: In vitro cell inhibition, % of inhibition, HCT-116
Experimental: as §1

[5] = system: PC-3; experiment: MTT assay on cancer cell line PC-3; assay type: cell-based, human; conditions: Homo sapiens, Table 9 (for reference), read-out: In vitro cell inhibition, % of inhibition, PC-3
Experimental: as §1

[6] = MCF7, MCF-7, Table 9 (for reference), read-out: In vitro cell inhibition, % of inhibition, MCF-7
[7] = MCF7, read-out: inhibition against MCF-7 cell lines
[8] = SHSY-5Y, Table 9 (for reference), read-out: In vitro cell inhibition, % of inhibition, SHSY-5Y
[9] = read-out: inhibition against SHSY-5Y cell lines

Structure (SMILES) | inhibition at 10 µM [1] | inhibition at 10 µM [2, 6] | inhibition at 10 µM [2, 7] | inhibition at 10 µM [3, 8] | inhibition at 10 µM [4] | inhibition at 10 µM [5] | inhibition at 10 µM [3, 9]
Nc1nccc(-c2c[nH]c3ncc(-c4nccc5ccccc45)cc23)n1 [1C20, 4-(5-(isoquinolin-1-yl)-1H-pyrrolo[2,3-b]pyridin-3-yl)pyrimidin-2-amine] | > 50% | > 50% | > 50% | > 50% | > 70% | > 50% | –
Nc1nccc(-c2c[nH]c3ncc(-c4cc5ccccc5s4)cc23)n1 [1C18, 4-(5-(benzo[b]thiophen-2-yl)-1H-pyrrolo[2,3-b]pyridin-3-yl)pyrimidin-2-amine] | < 50% | > 70% | – | > 70% | > 70% | > 70% | > 70%
Nc1nccc(-c2c[nH]c3ncc(-c4ccoc4)cc23)n1 [1C16, 4-(5-(furan-3-yl)-1H-pyrrolo[2,3-b]pyridin-3-yl)pyrimidin-2-amine] | > 70% | > 70% | > 70% | > 70% | > 70% | < 50% | > 70%
Nc1nccc(-c2c[nH]c3ncc(-c4cccc(F)c4)cc23)n1 [1C5, 4-(5-(3-fluorophenyl)-1H-pyrrolo[2,3-b]pyridin-3-yl)pyrimidin-2-amine] | > 70% | > 70% | > 70% | > 70% | > 70% | < 50% | > 70%
Cc1ccc(-c2cnc3[nH]cc(-c4ccnc(N)n4)c3c2)cc1 [1C6, 4-(5-(p-tolyl)-1H-pyrrolo[2,3-b]pyridin-3-yl)pyrimidin-2-amine] | > 70% | > 70% | > 70% | > 70% | > 70% | > 50% | > 70%
Nc1nccc(-c2c[nH]c3ncc(-c4ccc(C(F)(F)F)cc4)cc23)n1 [1C1, 4-(5-(4-(trifluoromethyl)phenyl)-1H-pyrrolo[2,3-b]pyridin-3-yl)pyrimidin-2-amine] | < 50% | > 50% | > 50% | > 50% | > 50% | > 50% | –
COc1ccc2[nH]c(-c3cnc4[nH]cc(-c5ccnc(N)n5)c4c3)cc2c1 [1C17, 4-(5-(5-methoxy-1H-indol-2-yl)-1H-pyrrolo[2,3-b]pyridin-3-yl)pyrimidin-2-amine] | > 70% | > 70% | > 70% | < 50% | > 70% | > 50% | –
Nc1nccc(-c2c[nH]c3ncc(-c4ccc(Cl)cc4)cc23)n1 [1C12, 4-(5-(4-chlorophenyl)-1H-pyrrolo[2,3-b]pyridin-3-yl)pyrimidin-2-amine] | > 70% | > 70% | > 70% | > 70% | > 70% | > 70% | > 70%
Nc1nccc(-c2c[nH]c3ncc(-c4ccc(C=O)cc4)cc23)n1 [1C13, 4-(3-(2-aminopyrimidin-4-yl)-1H-pyrrolo[2,3-b]pyridin-5-yl)benzaldehyde] | > 50% | > 50% | > 50% | > 50% | > 50% | > 50% | –
Nc1nccc(-c2c[nH]c3ncc(-c4cccnc4)cc23)n1 [1C15, 4-(5-(pyridin-3-yl)-1H-pyrrolo[2,3-b]pyridin-3-yl)pyrimidin-2-amine] | > 70% | > 70% | > 70% | > 70% | > 50% | < 50% | > 70%
